{"source": "patent US20090203783A1", "about": "“THERAPEUTIC AGENT FOR ACUTE CEREBRAL INFARCT” (ONO PHARMACEUTICAL CO., LTD., priority 2005, published 2009)", "type_in_all_cases": "in vivo, human", "key": {"[1]": {"tested_on": "patients of acute cerebral infarction", "assay": "Example 1 clinical trial, modified Rankin Scale (mRS)", "conditions": "10 mg/kg/hr iv, 5 days, after 3 months, administration 5.5 to 6 hours from onset", "protocol": "(§1) As a clinical trial, a double blind placebo-controlled parallel group study was carried out under the following conditions with patients of acute cerebral infarction as the object.\n(c) A patient who undergoes randomization by the study within 6 hours from the first infarction symptom and undergoes the first administration by the blind test (When the patient awoke under an infarction symptom which was not observed before sleeping, start of the infarction symptom is regarded as the started time of sleeping. When the started time is not clear, start of the infarction symptom is regarded as the time when the patient was lastly normal.);\n(f) A patient defined as a score of from 11 to 22 on NIH Stroke Scale, within 1 hour before the first administration;\n(§2) A total of 5 times for one hour intravenous continuous administration at intervals of about 24 hours in each group (administration period: 5 days).\n(§3) Evaluation method: Symptoms of patients were evaluated in accordance with the aforementioned list of marks of NIH Stroke Scale, about 1 month after or about 3 months after the commencement of administration. (2) Modified Rankin Scale (mRS) Evaluation method: Symptoms of patients were scored by classifying the symptoms of patients into the following grades of from 0 to 5, about 1 month after or about 3 months after the commencement of administration. 0: No symptoms at all. 1: No significant disability despite symptoms; able to carry out all usual duties and activities. 2: Slight disability; unable to carry out all previous activities, but able to look after own affairs without assistance. 3: Moderate disability; requiring some help, but able to walk without assistance. 4: Moderately severe disability; unable to walk without assistance and unable to attend to own bodily needs without assistance. 5: Severe disability; bedridden, incontinent and requiring constant nursing care and attention."}, "[2]": {"tested_on": "patients of acute cerebral infarction", "assay": "Example 1 clinical trial, Stroke Impact Scale (SIS) items 1a-1d, 4a", "conditions": "about 3 months, 5 hours or more from onset", "protocol": "as §1, §2\nBased on the results of the above-mentioned efficacy evaluation items and safety evaluation items, therapeutic effect of the intravenous continuous administration of (2R)-2-propyloctanoic acid to cerebral infarction patients was evaluated. Additionally, in order to examine the therapeutic effect more in detail, improving effect of the intravenous continuous administration of (2R)-2-propyloctanoic acid for each of (a) [Arm strength], (b) [Grip], (c) strength of the legs [Leg], (d) strength of the ahead of the ankle [Ankle/foot], and (e) language [Naming] was evaluated after about 3 months from the commencement of administration, using the items 1a, 1b, 1c, Id and 4a of the Stroke Impact Scale (SIS). In this connection, the Stroke Impact Scale is a conventionally known evaluation method and can be obtained from an internet <URL: www.chrp.org/, www.strokecenter.org, www2.kumc.edu/coa/> and the like. Specifically, the evaluation of 1a, 1b, 1c and id is carried out by a mode of selecting any one of the answers, A lot of strength, Quite a bit of strength, Some strength, A little strength and No strength at all, for the following questions\nand five scores, four scores, 3 scores, 2 scores and 1 score are given in response to the respective answers.\nAdditionally, the evaluation of 4a is carried out by a mode of selecting any one of the answers, Not difficult at all, A little difficult, Somewhat difficult and Very difficult and Extremely difficult, for the following questions\nIn this case, the group P represents a placebo administration group, and the group L represents a (2R)-2-propyloctanoic acid 4 mg/kg/hr administration group, and the group H represents a (2R)-2-propyloctanoic acid 10 mg/kg/hr administration group. The evaluation result of each item was shown by a form of “(the number of patients having an evaluation score of 4 or more)/(the number of patients evaluated)”."}, "[3]": {"tested_on": "patients of acute cerebral infarction", "assay": "Example 1 clinical trial, safety (adverse events)", "conditions": "4 or 10 mg/kg/hr iv, 5 days", "protocol": "as §1, §2\n(§4) Frequency of adverse event and contents thereof (symptom, causal relation and the like)"}, "[4]": {"tested_on": "patients of acute cerebral infarction", "assay": "Example 2 clinical trial, modified Rankin Scale (mRS)", "conditions": "7 days", "protocol": "as §3\n(§5) As a clinical trial, a double blind placebo-controlled parallel group study was carried out under the following conditions using patients of acute cerebral infarction as the object.\n(e) A patient whose period of time from the onset of cerebral infarction until commencement of administration is 72 hour or less;\n(§6) A total of 7 times for one hour intravenous continuous administration at intervals of about 24 hours in each group (administration period: 7 days).\n(§7) Symptoms of patients were evaluated after about 1 month or after about 3 months from the commencement of the administration, in accordance with the methods described in the aforementioned [EFFICACY EVALUATION ITEMS] of Example 1."}, "[5]": {"tested_on": "patients of acute cerebral infarction", "assay": "Example 2 clinical trial, safety (adverse events)", "conditions": "0.4, 4 or 8 mg/kg/hr iv, 7 days", "protocol": "as §5, §6, §4"}, "[6]": {"tested_on": "patients of acute cerebral infarction", "assay": "Example 3 clinical trial, efficacy evaluation items", "conditions": "7 days", "protocol": "as §5, §6, §7"}, "[7]": {"tested_on": "patients of acute cerebral infarction", "assay": "Example 3 clinical trial, safety (adverse events)", "conditions": "8 or 12 mg/kg/hr iv, 7 days", "protocol": "as §5, §6, §4"}}, "data": [{"smiles": "CCCCCC[C@@H](CCC)C(=O)O", "note": "[(2R)-2-propyloctanoic acid]", "values": [{"measurement": "ratio of the number of patients whose mRS scores became 0 to 3", "setting": "[1]", "value": 31.5, "unit": "%"}, {"measurement": "ratio of the number of patients whose mRS scores became 0 to 3", "setting": "[1]; patients of less than 80 years, NIH Stroke Scale 11 to 18", "value": 46.0, "unit": "%"}, {"measurement": "ratio of the number of patients whose mRS scores became 0 to 3", "setting": "[1]; patients of less than 80 years", "value": 39.0, "unit": "%"}, {"measurement": "SIS Ankle/foot: (number of patients having an evaluation score of 4 or more)/(number of patients evaluated)", "setting": "[2]; Group H, 10 mg/kg/hr", "value": "60/100"}, {"measurement": "SIS Ankle/foot: ratio of patients with evaluation score of 4 or more", "setting": "[2]; Group H, 10 mg/kg/hr", "value": "(60%)"}, {"measurement": "SIS Arm strength: (number of patients having an evaluation score of 4 or more)/(number of patients evaluated)", "setting": "[2]; Group H, 10 mg/kg/hr", "value": "44/100"}, {"measurement": "SIS Arm strength: ratio of patients with evaluation score of 4 or more", "setting": "[2]; Group H, 10 mg/kg/hr", "value": "(44%)"}, {"measurement": "SIS Grip: (number of patients having an evaluation score of 4 or more)/(number of patients evaluated)", "setting": "[2]; Group H, 10 mg/kg/hr", "value": "46/100"}, {"measurement": "SIS Grip: ratio of patients with evaluation score of 4 or more", "setting": "[2]; Group H, 10 mg/kg/hr", "value": "(46%)"}, {"measurement": "SIS Leg: (number of patients having an evaluation score of 4 or more)/(number of patients evaluated)", "setting": "[2]; Group H, 10 mg/kg/hr", "value": "59/100"}, {"measurement": "SIS Leg: ratio of patients with evaluation score of 4 or more", "setting": "[2]; Group H, 10 mg/kg/hr", "value": "(59%)"}, {"measurement": "SIS Naming: (number of patients having an evaluation score of 4 or more)/(number of patients evaluated)", "setting": "[2]; Group H, 10 mg/kg/hr", "value": "65/100"}, {"measurement": "SIS Naming: ratio of patients with evaluation score of 4 or more", "setting": "[2]; Group H, 10 mg/kg/hr", "value": "(65%)"}, {"measurement": "SIS Ankle/foot: (number of patients having an evaluation score of 4 or more)/(number of patients evaluated)", "setting": "[2]; Group L, 4 mg/kg/hr", "value": "39/88"}, {"measurement": "SIS Ankle/foot: ratio of patients with evaluation score of 4 or more", "setting": "[2]; Group L, 4 mg/kg/hr", "value": "(44%)"}, {"measurement": "SIS Arm strength: (number of patients having an evaluation score of 4 or more)/(number of patients evaluated)", "setting": "[2]; Group L, 4 mg/kg/hr", "value": "34/88"}, {"measurement": "SIS Arm strength: ratio of patients with evaluation score of 4 or more", "setting": "[2]; Group L, 4 mg/kg/hr", "value": "(39%)"}, {"measurement": "SIS Grip: (number of patients having an evaluation score of 4 or more)/(number of patients evaluated)", "setting": "[2]; Group L, 4 mg/kg/hr", "value": "36/88"}, {"measurement": "SIS Grip: ratio of patients with evaluation score of 4 or more", "setting": "[2]; Group L, 4 mg/kg/hr", "value": "(41%)"}, {"measurement": "SIS Leg: (number of patients having an evaluation score of 4 or more)/(number of patients evaluated)", "setting": "[2]; Group L, 4 mg/kg/hr", "value": "46/88"}, {"measurement": "SIS Leg: ratio of patients with evaluation score of 4 or more", "setting": "[2]; Group L, 4 mg/kg/hr", "value": "(52%)"}, {"measurement": "SIS Naming: (number of patients having an evaluation score of 4 or more)/(number of patients evaluated)", "setting": "[2]; Group L, 4 mg/kg/hr", "value": "58/88"}, {"measurement": "SIS Naming: ratio of patients with evaluation score of 4 or more", "setting": "[2]; Group L, 4 mg/kg/hr", "value": "(66%)"}, {"measurement": "severe adverse events having a different frequency between drug group and placebo group", "setting": "[3]", "value": "not found"}, {"measurement": "side effect in which its frequency increases depending on the dose", "setting": "[3]", "value": "not found"}, {"measurement": "ratio of mRS occupying 0 to 2", "setting": "[4]; 0.4 mg/kg/hr iv, after 3 months, JCS I-1 to I-3 and NIH Stroke Scale 7 or more", "value": 48.1, "unit": "%"}, {"measurement": "ratio of mRS occupying 0 to 2", "setting": "[4]; 4 mg/kg/hr iv, after 3 months, JCS I-1 to I-3 and NIH Stroke Scale 7 or more", "value": 47.9, "unit": "%"}, {"measurement": "ratio of mRS occupying 0 to 2", "setting": "[4]; 8 mg/kg/hr iv, after 1 month", "value": 45.7, "unit": "%"}, {"measurement": "ratio of mRS occupying 0 to 2", "setting": "[4]; 8 mg/kg/hr iv, after 3 months", "value": 58.1, "unit": "%"}, {"measurement": "ratio of mRS occupying 0 to 2", "setting": "[4]; 8 mg/kg/hr iv, after 3 months, JCS I-1 to I-3 and NIH Stroke Scale 7 or more", "value": 63.0, "unit": "%"}, {"measurement": "ratio of mRS occupying 0 to 2", "setting": "[4]; 8 mg/kg/hr iv, after 3 months, patients with JCS I-1 to I-3 before administration", "value": 69.1, "unit": "%"}, {"measurement": "severe adverse event having a different frequency between drug group and placebo group", "setting": "[5]", "value": "not found"}, {"measurement": "side effect in which its frequency increases depending on the dose", "setting": "[5]", "value": "not found"}, {"measurement": "improving effects of the items shown in the efficacy evaluation items", "setting": "[6]; 8 mg/kg/hr iv", "value": "excellent improving effects"}, {"measurement": "improving effects of the items shown in the efficacy evaluation items", "setting": "[6]; 12 mg/kg/hr iv", "value": "excellent improving effects"}, {"measurement": "severe adverse event having a different frequency between drug group and placebo group", "setting": "[7]", "value": "not found"}, {"measurement": "side effect in which its frequency increases depending on the dose", "setting": "[7]", "value": "not found"}]}]}
